Reference: patent US20150335021A1, “Cycloclavine and Derivatives Thereof for Controlling Invertebrate Pests” (BASF SE, priority 2012, published 2015)

Key:
[1] = system: Diamond Back Moth (plutella xylostella); assay: Diamond back moth leaf-dip test on Chinese cabbage; assay type: in vivo; details: 300 ppm, recorded 24, 72 and 120 hours after treatment, in comparison with untreated controls
Experimental: (§1) If not otherwise specified the test solutions are prepared as follow:
(§2) The active compound is dissolved at the desired concentration in a mixture of 1:1 (vol:vol) distilled water:acteon. The test solution is prepared at the day of use and in general at concentrations of […].
B.3 Diamond Back Moth (plutella xylostella)
Leaves of Chinese cabbage were dipped in test solution and air-dried. Treated leaves were placed in petri dished lined with moist filter paper. Mortality was recorded 24, 72, and 120 hours after treatment.

[2] = system: Orchid Thrips (dichromothrips corbetti); assay: Orchid thrips floral-immersion test; assay type: in vivo; details: 300 ppm, after 4 days, in comparison with untreated controls
Experimental: B.4 Orchid Thrips (dichromothrips corbetti)
Dichromothrips corbetti adults used for bioassay are obtained from a colony maintained continuously under laboratory conditions. For testing purposes, the test compound is diluted to a concentration of 300 ppm (wt compound: vol diluent) in a 1:1 mixture of acetone:water (vol:vol), plus 0.01% vol/vol Kinetic® surfactant.
Thrips potency of each compound is evaluated by using a floral-immersion technique. Plastic petri dishes are used as test arenas. All petals of individual, intact orchid flowers are dipped into treatment solution and allowed to dry. Treated flowers are placed into individual petri dishes along with 10-15 adult thrips. The petri dishes are then covered with lids. All test arenas are held under continuous light and a temperature of about 28° C. for duration of the assay. After 4 days, the numbers of live thrips are counted on each flower, and along inner walls of each petri dish. The level of thrips mortality is extrapolated from pre-treatment thrips numbers.

[3] = system: Red spider Mite (Tetranychus kanzawai); assay: Red spider mite test on sprayed cowpea beans; assay type: in vivo; details: 300 ppm, spray, after 72 h, in comparison with untreated controls
Experimental: B.6 Red spider Mite (Tetranychus kanzawai)
The active compound was dissolved at the desired concentration in a mixture of 1:1 (v/v) distilled water:acetone. A surfactant (Alkamuls® EL 620) was added at the rate of 0.1% (v/v).
Potted cowpea beans of 7-10 days of age were cleaned with tap water and sprayed with 5 ml of the test solution using air driven hand atomizer. The treated plants were allowed to air dry and afterwards inculated with 20 or more mites by clipping a cassava leaf section with known mite population. Treated plants were placed inside a holding room at about 25-27° C. and about 50-60% relatice humidity.
ortality by counting the live mites 72 HAT. Percent mortality was assessed after 72 h.

[4] = system: Striped Flea Beetle (Phylotretta striolata); assay: Striped flea beetle leaf-dip test on Chinese cabbage; assay type: in vivo; details: 300 ppm, 72 hours after treatment, in comparison with untreated controls
Experimental: B.10 Striped Flea Beetle (Phylotretta striolata)
The active compound is dissolved at the desired concentration in a mixture of 1:1 (vol:vol) distilled water:acetone. Add surfactant (Alkamuls® EL620) at the rate of 0.1% (vol/vol). The test solution is prepared at the day of use.
Leaves of Chinese cabbage were dipped in test solution and air-dried. Treated leaves were placed in pertri dishes lined with moist filter paper and inoculated with 20 adults. Mortality was recorded 72 hours after treatment. Feeding damage were also recorded using scale of 0-100%.

[5] = system: Cotton Aphid (Aphis gossypi); assay: Cotton aphid spray test on infested cotton plants; assay type: in vivo; details: 120 h, after 5 days, in comparison with untreated controls
Source text: B.1 Cotton Aphid (Aphis gossypi)
(§3) The active compounds were formulated in cyclohexanone as a 10,000 ppm solution supplied in tubes. The tubes were inserted into an automated electrostatic sprayer equipped with an atomizing nozzle and they served as stock solutions for which lower dilutions were made in 50% acetone: 50% water (v/v). A nonionic surfactant (Kinetic®) was included in the solution at a volume of 0.01% (v/v).
Cotton plants at the cotyledon stage were infested with aphids prior to treatment by placing a heavily infested leaf from the main aphid colony on top of each cotyledon. Aphids were allowed to transfer overnight to accomplish an infestation of 80-100 aphids per plant and the host leaf was removed. The infested plants were then sprayed by an automated electrostatic plant sprayer equipped with an atomizing spray nozzle. The plants were dried in the sprayer fume hood, removed from the sprayer, and then maintained in a growth room under fluorescent lighting in a 24-hr photoperiod at 25° C. and 20-40% relative humidity. Aphid mortality on the treated plants, relative to mortality on untreated control plants, was determined after 5 days.

[6] = system: Cowpea Aphid (aphis craccivora); assay: Cowpea aphid spray test on potted cowpea plants; assay type: in vivo; details: assessed after 24, 72 and 120 hours, in comparison with untreated controls
Experimental: as §1, §2
B.2 Cowpea Aphid (aphis craccivora)
Potted cowpea plants colonized with approximately 100-150 aphids of various stages were sprayed after the pest population has been recorded. Population reduction was assessed after 24, 72, and 120 hours.

[7] = system: Silverleaf Whitefly (Bemisia argentifolii); assay: Silverleaf whitefly test on sprayed cotton plants; assay type: in vivo; details: 72 h, spray, 3 days after treatment, in comparison with untreated controls
Source text: B.5 Silverleaf Whitefly (Bemisia argentifolii)
as §3, with “acetone:50%” for “acetone: 50%”, “(Kinetic( )” for “(Kinetic®)”
Cotton plants at the cotyledon stage (one plant per pot) were sprayed by an automated electrostatic plant sprayer equipped with an atomizing spray nozzle. The plants were dried in the sprayer fume hood and then removed from the sprayer. Each pot was placed into a plastic cup and about 10 to 12 whitefly adults (approximately 3-5 days old) were introduced. The insects were collected using an aspirator and a nontoxic Tygon® tubing connected to a barrier pipette tip. The tip, containing the collected insects, was then gently inserted into the soil containing the treated plant, allowing insects to crawl out of the tip to reach the foliage for feeding. Cups were covered with a reusable screened lid. […] Mortality was assessed 3 days after treatment, compared to untreated control plants.

[8] = system: Vetch Aphid (Megoura viciae); assay: Vetch aphid leaf disk microtiter plate test; assay type: in vivo; details: foliar, 120 h, leaf disks sprayed, 5 days, in comparison with untreated controls
Experimental: B.7 Vetch Aphid (Megoura viciae)
For evaluating control of vetch aphid (Megoura viciae) through contact or systemic means the test unit consisted of 24-well-microtiter plates containing broad bean leaf disks.
The compounds were formulated using a solution containing 75% v/v water and 25% v/v DMSO. Different concentrations of formulated compounds were sprayed onto the leaf disks at 2.5 μl, using a custom built micro atomizer, at two replications.
After application, the leaf disks were air-dried and 5-8 adult aphids placed on the leaf disks inside the microtiter plate wells. The aphids were then allowed to suck on the treated leaf disks and incubated at about 23±1° C. and about 50±5% relative humidity for 5 days. Aphid mortality and fecundity was then visually assessed.

[9] = system: Green Peach Aphid (Myzus persicae); assay: Green peach aphid spray test on bell pepper plants; assay type: in vivo; details: 120 h, after 5 days, in comparison with untreated controls
Source text: B.8 Green Peach Aphid (Myzus persicae)
as §3, with “are” for “were”, “is” for “was”
Bell pepper plants at the first true-leaf stage are infested prior to treatment by placing heavily infested leaves from the main colony on top of the treatment plants. Aphids are allowed to transfer overnight to accomplish an infestation of 30-50 aphids per plant and the host leaves are removed. The infested plants are then sprayed by an automated electrostatic plant sprayer equipped with an atomizing spray nozzle. The plants are dried in the sprayer fume hood, removed, and then maintained in a growth room under fluorescent lighting in a 24-hr photoperiod at about 25° C. and about 20-40% relative humidity. Aphid mortality on the treated plants, relative to mortality on untreated control plants, is determined after 5 days.

[10] = system: Rice Green Leafhopper (Nephotettix virescens); assay: Rice green leafhopper test on sprayed rice seedlings; assay type: in vivo; details: spray, after 72 hours, in comparison with untreated controls
Experimental: B.9 Rice Green Leafhopper (Nephotettix virescens)
Rice seedlings are cleaned and washed 24 hours before spraying. The active compounds are formulated in 50:50 acetone:water (vol:vol), and 0.1% vol/vol surfactant (EL 620) is added. Potted rice seedlings are sprayed with 5 ml test solution, air dried, placed in cages and inoculated with 10 adults. Treated rice plants are kept at about 28-29° C. and relative humidity of about 50-60%. Percent mortality is recorded after 72 hours.

[11] = system: antibodies against lysergic acid-bovine serum albumin conjugates; details: antibodies raised in rabbits against lysergic acid conjugates; Arens et al, Planta Medica (1980); cited from earlier work
[12] = system: yellowfever mosquito larvae (Aedes aegypti); assay: Larval mosquito water treatment assay; details: 120 h

| Compound | mortality [1] | mortality [2] | mortality [3] | mortality [4] | mortality at 300 ppm [5] [%] | mortality at 300 ppm [6] [%] | mortality at 300 ppm [7] [%] | mortality at 2500 ppm [8] [%] | mortality at 300 ppm [9] [%] | mortality at 300 ppm [10] [%] | cross reaction activity [11] | mortality at 10 ppm [12] [%] |
| --- | --- | --- | --- | --- | --- | --- | --- | --- | --- | --- | --- | --- |
| N-methylcarbamoyl-(1aR,3aR,9bR)-1a,2,3,3a,4,6-hexahydro-1a,3-dimethyl-1H-cycloprop[c]indolo[4,3-ef]indole [compound 1-2] | at least 75% | at least 75% | at least 75% | at least 75% | – | – | – | – | – | – | – | – |
| CN1CC2(C)CC23c2cccc4[nH]cc(c24)CC13 (stereo not drawn) [compound 1-1, cycloclavin] | – | – | – | – | ≥ 75 | ≥ 75 | ≥ 75 | ≥ 75 | ≥ 75 | ≥ 75 | did not show cross reaction activity | ≥ 60 |
